In data set [1] the test system is TNF-α production induced by lipopolysaccharide (LPS) stimulation. The data set is described as follows: In vivo test: TNF-α levels in plasma of LPS-administered rats. Details: species or system rat. As to conditions: female rats, oral administration of 50 mg/kg immediately after subcutaneous LPS, plasma two hours after LPS; for inhibition in vivo at 50 mg/kg: Rattus norvegicus, 2 h, read-out: Inhibition rate (%) (TNF-α production inhibition rates). How it is done:
(§1) Inhibitory effects on TNF-α production induced by lipopolysaccharide (LPS) stimulation were studied by in vitro or in vivo tests according to the method of McGeehan et al. (Nature, 370, […](1994)).
Female rats (five per group), body weight of about 200 g,about eight weeks old, were used as test animals. With respect to LPS to be used, LPS from Salmonella was dissolved in physiological saline (1 mg/ml). Test compounds were dissolved or uniformly suspended in a 1% aqueous methylcellulose solution.
The above-mentioned LPS solution (0.5 ml/kg) was subcutaneously administered to the rat. Immediately after the LPS administration, the test compound preparation liquid (5 ml/kg, containing 50 mg/kg test compound) was orally administered. Two hours after the LPS administration, blood was collected from abdominal aorta and was centrifuged at 4° C. and 3000 rpm for ten minutes. TNF-α levels in the obtained plasma were measured with a rat TNF-α-specific ELISA kit. TNF-α was not observed in the plasma with respect to an LPS-nonadministered group (control).
(§2) TNF-α production inhibition rates of the test compounds were determined by the following equation.
(§3) Inhibition rate (%)=[(A-B)/A]×100
A: TNF-α level in plasma of test compound-nonadministered group
B: TNF-α level in plasma of test compound-administered group

The test system of data set [2] is TNF-α production from human monocytic line THP-1 by LPS stimulation. The data set is described as follows: In vitro test: TNF-α production from human monocytic line THP-1 by LPS stimulation. As to conditions: 2 h; test compound 10^−5 M, THP-1 cells 10^6/ml, LPS 2 μg/ml, 37° C. for two hours, human TNF-α specific ELISA; read-out: Inhibition rate (%) (TNF-α inhibition rates). The class given is cell-based. How it is done:
as §1
Analyses were carried out by measuring TNF-α production from human monocytic line THP-1 by LPS stimulation.
As a medium, an RPMI1640medium containing a fetal bovine serum(10%), L-glutamine (2 mM), 2-mercaptoethanol (50 μM), penicillin (50 units/ml) and streptomycin (50 μg/ml) was used.
With respect to cells, human monocytic line THP-1 cells cultured in the above-mentioned medium were centrifuged at 100×g for five minutes to remove supernatant and then re-suspended in the medium. With respect to LPS, LPS from S. Typhimurium was dissolved in purified water and then diluted with the medium. Test compounds were dissolved in dimethyl sulfoxide (DMSO) and then diluted with the medium.
The cells (10^6/ml), LPS (2 μg/ml) and the test compound (10^−5 M) prepared as mentioned above were mixed, and this mixture was incubated at 37° C. for two hours and then centrifuged at 1000×g […] in cultured supernatant were measured with a human TNF-α specific ELISA kit. TNF-α production was not observed in the cultured supernatant in the absence of LPS (control).
as §2, §3
A: TNF-α level in supernatant of culture medium in the absence of test compound
B: TNF-α level in supernatant of culture medium in the presence of test compound
On the technique in general: In an ELISA, binding on a coated surface is turned into a signal by an enzyme label.

For the compound `CSCCC(NC(=O)N(CCSC(C)=O)CCc1ccccc1)C(=O)N1CCN(C)CC1` (racemic) [Compound No. 27-4, 1-[(2RS)-2-[3-[2-(Acetylthio)ethyl]-3-phenethylureido]-4-(methylthio)butyryl]-4-methylpiperazine], the inhibition in vivo at 50 mg/kg in data set [1] turned out to be 60.9%.
Same read-out and setting: the result for `CC(=O)SCCN(CCC1CCCCC1)C(=O)N[C@@H](C)C(=O)N1CCN(C)CC1` [Compound No. 13-1, 1-[(2S)-2-[3-[2-(Acetylthio)ethyl]-3-(2-cyclohexylethyl)ureido]propionyl]-4-methylpiperazine] reads 84.6%.
Regarding `CC(=O)SCCN(CCc1ccccc1)C(=O)N[C@H](C)C(=O)N1CCN(C)CC1` [Compound No. 13-3, 1-[(2R)-2-[3-[2-(Acetylthio)ethyl]-3-phenethylureido]propionyl]-4-methylpiperazine], the inhibition in vivo at 50 mg/kg in data set [1] stood at 66.8%.
Still for that read-out and setting: the result for `CC(=O)SCCN(CCCc1ccccc1)C(=O)N[C@@H](C)C(=O)N1CCN(C)CC1` [Compound No. 13-12, 1-[(2S)-2-[3-[2-(Acetylthio)ethyl]-3-(3-phenylpropyl)ureido]propionyl]-4-methylpiperazine] reads 62.3%.
`CC(=O)SCCN(CCOc1ccccc1)C(=O)N[C@@H](C)C(=O)N1CCN(C)CC1` [Compound No. 13-16]: the “Inhibition rate (%) (TNF-α production inhibition rates)” value in data set [1] stood at 54.1%.
On to `CC(=O)SCCN(C(=O)N[C@@H](C)C(=O)N1CCN(C)CC1)c1ccccc1` [Compound No. 13-17, 1-[(2S)-2-[3-[2-(Acetylthio)ethyl]-3-phenylureido]propionyl]-4-methylpiperazine], for which the inhibition in vivo at 50 mg/kg in data set [1] was 50.3%.
Same read-out and setting: then `CC(=O)SCCN(CCc1ccccc1)C(=O)NCC(=O)N1CCN(C)CC1` [Compound No. 13-20, 1-[2-[3-[2-(Acetylthio)ethyl]-3-phenethylureido]acetyl]-4-methylpiperazine], with 66.6%.
On to `CC(=O)SCCN(CCc1ccccc1)C(=O)N[C@@H](Cc1ccccc1)C(=O)N1CCN(CC(=O)O)CC1` [Compound No. 13-32, 1-[(2S)-2-[3-[2-(Acetylthio)ethyl]-3-phenethylureido]-3-phenylpropionyl]-4-(carboxymethyl)piperazine], for which the melting point was 230 °C (dec.).
In the case of `CC(=O)SCCN(CCC1CCCCC1)C(=O)N[C@@H](C)C(=O)N1CCCCC1` [Compound No. 13-49, 1-[(2S)-2-[3-[2-(Acetylthio)ethyl]-3-(2-cyclohexylethyl)ureido]propionyl]piperidine], the inhibition in vivo at 50 mg/kg in data set [1] was 90%.
On the same count and under the same terms, the result for `CC(=O)SCCN(CCC1CCCCC1)C(=O)N[C@@H](C)C(=O)N1CCOCC1` [Compound No. 13-50, 4-[(2S)-2-[3-[2-(Acetylthio)ethyl]-3-(2-cyclohexylethyl)ureido]propionyl]morpholine] reads 93.5%; that for `CC(=O)SCCN(CCC1CCCC1)C(=O)N[C@@H](C)C(=O)N1CCN(C)CC1` [Compound No. 13-57, 1-[(2S)-2-[3-[2-(Acetylthio)ethyl]-3-(2-cyclopentylethyl)ureido]propionyl]-4-methylpiperazine], 90.1%.
Consider `CC(=O)SCCN(CCc1ccccc1)C(=O)N[C@@H](Cc1ccc([N+](=O)[O-])cc1)C(=O)NCCN(C(C)C)C(C)C` [Compound No. 27-10], for which the inhibition at 10 µM in data set [2] is 100%.
On the same count and under the same terms, the result for `CC(=O)SCCN(CCc1ccccc1)C(=O)N[C@@H](Cc1ccc(Cl)cc1)C(=O)NCCN(C)C` [Compound No. 27-17, (2S)-2-[3-[2-(Acetylthio)ethyl]-3-phenethylureido]-3-(4-chlorophenyl)-N-[2-(dimethylamino)ethyl]propionamide] reads 93.5%; that for `CC(=O)SCCN(CCc1ccccc1)C(=O)N[C@@H](Cc1ccc([N+](=O)[O-])cc1)C(=O)NCCN(C)C` [Compound No. 27-41, (2S)-2-[3-[2-(Acetylthio)ethyl]-3-phenethylureido]-N-[2-(dimethylamino)ethyl]-3-(4-nitrophenyl)propionamide], 93.8%.
Consider `CN(C)CCNC(=O)[C@H](Cc1ccc([N+](=O)[O-])cc1)NC(=O)N(CCSC(=O)c1ccccc1)CCc1ccccc1` [Compound No. 27-42, (2S)-2-[3-[2-(Benzoylthio)ethyl]-3-phenethylureido]-N-[2-(dimethylamino)ethyl]-3-(4-nitrophenyl)propionamide], for which the inhibition at 10 µM in data set [2] was 100%.
For the compound `CC(=O)SCCN(CCc1ccccc1)C(=O)N[C@@H](Cc1ccc([N+](=O)[O-])cc1)C(=O)NCCN1C(=O)c2ccccc2C1=O` [Compound No. 27-45, (2S)-2-[3-[2-(Acetylthio)ethyl]-3-phenethylureido]-3-(4-nitrophenyl)-N-[2-(phthalimido)ethyl]propionamide], the melting point is 110 °C.
`CC(=O)SCCN(CCc1ccccc1)C(=O)N[C@@H](Cc1ccc([N+](=O)[O-])cc1)C(=O)NCCc1ccccn1` [Compound No. 27-50, (2S)-2-[3-[2-(Acetylthio)ethyl]-3-phenethylureido]-3-(4-nitrophenyl)-N-[2-(2-pyridyl)ethyl]propionamide] had a melting point of 106 to 112.5 °C.
On the same count and under the same terms, the result for `CC(=O)SCCN(CCc1ccccc1)C(=O)N[C@@H](Cc1ccc(F)cc1)C(=O)NCCN(C)C` [Compound No. 27-54, (2S)-2-[3-[2-(Acetylthio)ethyl]-3-phenethylureido]-N-[2-(dimethylamino)ethyl]-3-(4-fluorophenyl)propionamide] reads 90 °C.
`COc1ccc(C[C@H](NC(=O)N(CCSC(C)=O)CCc2ccccc2)C(=O)NCCN(C)C)cc1` [Compound No. 27-56, (2S)-2-[3-[2-(Acetylthio)ethyl]-3-phenethylureido]-N-[2-(dimethylamino)ethyl]-3-(4-methoxyphenyl)propionamide]: the inhibition at 10 µM in data set [2] came to 96.9%.
With `CC(=O)SCCN(CCc1ccccc1)C(=O)N[C@@H](Cc1ccc2ccccc2c1)C(=O)NCCN(C)C` [Compound No. 27-58, (2S)-2-[3-[2-(Acetylthio)ethyl]-3-phenethylureido]-N-[2-(dimethylamino)ethyl]-3-(2-naphthyl)propionamide], the inhibition at 10 µM in data set [2] stood at 100%.
Same read-out and setting: the result for `CC(=O)SCCN(CCc1ccccc1)C(=O)N[C@@H](Cc1ccc(-c2ccccc2)cc1)C(=O)NCCN(C)C` [Compound No. 27-59, (2S)-2-[3-[2-(Acetylthio)ethyl]-3-phenethylureido]-3-(4-biphenylyl)-N-[2-(dimethylamino)ethyl]propionamide] reads 100%.
Take `CC(=O)Nc1ccc(C[C@H](NC(=O)N(CCSC(C)=O)CCc2ccccc2)C(=O)NCCN(C)C)cc1` [Compound No. 27-82, (2S)-3-[4-(Acetylamino)phenyl]-2-[3-[2-(acetylthio)ethyl]-3-phenethylureido]-N-[2-(dimethylamino)ethyl]propionamide]: the melting point is 95 °C (dec.).
As to `CC(=O)SCCN(CCC1=CCCCC1)C(=O)N[C@@H](C)C(=O)N1CCN(C)CC1` [Compound No. 27-84, 1-[(2S)-2-[3-[2-(Acetylthio)ethyl]-3-[2-(1-cyclohexenyl)ethyl]ureido]propionyl]-4-methylpiperazine], the inhibition in vivo at 50 mg/kg in data set [1] is 56.7%.

What is called melting point is the temperature of the solid-liquid transition. A word on the inhibition: it is how much of the control response was suppressed.

The values are drawn from patent US6492370B1, “Urea derivatives and pharmaceutical compositions thereof” (Santen Pharmaceutical Co., Ltd., priority 1998, dated 2002).
